Results on three compounds are retold here after patent US20220273659A1, “HETEROCYCLIC COMPOUNDS AS KINASE INHIBITORS” (NUVATION BIO INC., priority 2019, published 2022).

The target in one test is T1, CDK6 (Homo sapiens, UniProt Q00534).
T1 construct: purchased Invitrogen PR8422B
Description: In vitro kinase inhibition IC50, luminescence (ADP Glo), retinoblastoma substrate. Format: biochemical. The note with it: read-out: CDK6/D1 IC50. The method in brief: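 Recombinant CDK6 (5 nM) with retinoblastoma substrate (1 μM) and 25 μM ATP, compound at final 0.1–200 nM, incubated 2 h at room temperature. ADP formed detected by ADP-Glo luminescence. IC50 from four-parameter logistic fit of percent inhibition.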

Another test addresses T2, CDK4 (Homo sapiens, UniProt P11802).
T2 construct: purchased Invitrogen PR8064A
The test is described as above. Format: biochemical. Conditions: read-out: CDK4/D1 IC50. The method in brief: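 CDK4 enzyme (5 nM, Invitrogen) was combined with test compound and a mix of retinoblastoma substrate (1 μM) plus ATP (25 μM) in kinase buffer, 30 μL/well in 96-well half area white plates. After 2H at room temperature, ADP Glo reagent stopped the reaction for 45 min, then detection reagent was added and luminescence was read.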

Another test concerns the target T3, CDK1 (cyclin B) (Homo sapiens, UniProt P06493).
T3 construct: purchased Invitrogen Life Technologies (assay service)
Description: Z'-LYTE kinase assay. Format: biochemical. The protocol:
The plates were shaken for 30 seconds, and incubated for 60 minutes at room temperature. […] The plates were read on fluorescence plate reader with Dual emission at 445 nm and 520 nm.
The following equations were used for Z′-LYTE™ Screening Assay Data Analysis.

In the next test the target is T4, CDK9 (cyclin K) (Homo sapiens, UniProt P50750).
T4 construct: purchased Invitrogen Life Technologies (assay service)
As to the kind of experiment: LanthaScreen Eu Kinase Binding Assay. The method, then: 0.16 μL of 100×test compound in 100% DMSO (at specific solutions) were mixed with 3.84 μL of Kinase Buffer (50 mM HEPES pH 7.5, 0.01% BRIJ-35, 10 mM MgCl2, 1 mM EGTA), 8.0 μL of 2× Kinase (5 nM)/Antibody (Eu-anti-His, 2 nM) Mixture and 4.0 μL of 4×Tracer (Tracer 236, 100 nM). The plates were shaken for 30 seconds, and incubated for 60 minutes at room temperature. The plates were read on fluorescence plate reader with Dual emission at 615 nm and 665 nm.
The following equations were used for LanthaScreen Eu Kinase Binding Assay Data Analysis. Percent inhibition (100-% activity) was fitted to the “four-parameter logistic model” in XLfit for determination of IC50 values.
Background: TR-FRET usually uses a lanthanide donor and a delayed reading to cut background.

For the next test, the target named is T5, CDK2 (cyclin A) (Homo sapiens, UniProt P24941).
T5 construct: purchased Invitrogen Life Technologies (assay service)
Description: Z'-LYTE kinase assay. Format: biochemical. The method in brief: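 FRET-based Z′-LYTE read-out using 1.22–10.3 ng CDK2/cyclin A with Ser/Thr 12 peptide (2 μM in the 2× mix) and ATP (31 μM as the 4× solution), in HEPES pH 7.5, MgCl2, EGTA and BRIJ-35, for 60 min at room temperature. After 1 h of development, the 445/520 nm emission was read, and percent inhibition was fitted to a four-parameter logistic curve for IC50.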

Test [1] has as its system DU4475 breast carcinoma cells. As to the kind of experiment: Cancer cell proliferation assay, single agent (cell viability). Format: cell-based. The note with it: Homo sapiens, DU-4475; Table 4; Rb negative; treatment 144 Hr with medium change at 72 Hr; Cell Titer-Glo or resazurin. The method in brief:
(§1)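 Cells seeded day 1, then exposed on day 2 to 7–9 compound concentrations (e.g. 1.1 nM–10 μM); BT-549 for 24 h, MCF-7 and DU4475 for 144 h with medium change at 72 h. Viability by CellTiter-Glo or resazurin; IC50 from variable-slope sigmoidal fit.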
Background: In ATP-based viability assays light output follows the ATP content of the culture.

Test [2] has as its system MCF-7 breast adenocarcinoma cells. Described as above. Format: cell-based. Conditions: Homo sapiens. The method in brief: as §1
For test [3], the system named is MCF-7-PR (palbociclib-resistant MCF-7) cells. As to the kind of experiment: Cell viability in palbociclib-resistant cell line. Format: cell-based. The note with it: Homo sapiens, MCF7; Table 5; palbociclib-resistant cell line maintained at about 850 nM palbociclib. The method, then:
Cells were treated with test compounds at 7 to 9 concentrations within a desired concentration range (e.g. 1.1 nM-10 μM) on day 2 by series diluting the test compound stock solution (10 mM in DMSO) with culture medium. Treatment duration was 24 Hr for BT-549 cells and 144 Hr (with a medium change at 72 Hr) for MCF-7 and DU4475 cells. Cell viability was assessed by Cell Titer-Glo® as recommended by Promega (Cat. No.: G7572), or by resazurin assay (Sigma Aldrich, Cat. No.: R7017) post treatment.
Cell viability data were plotted using GraphPad Prism (GraphPad Software, Inc., San Diego, Calif.). In addition, a nonlinear regression model with a sigmoidal dose response and variable slope within GraphPad Prism was used to calculate the IC50 value of individual test compounds.
The effects of test compounds in a palbociclib-resistant cell line and a parental, non-resistant cell line were compared. The palbociclib-resistant cell line (“MCF-7-PR”) was derived from the parental, non-resistant cell line (MCF-7 breast adenocarcinoma cells) by culture of cells over a period of three months in increasing concentrations of palbociclib, starting from about 350 nM and ending at about 850 nM, the final concentration at which they were then maintained in culture. The MCF-7-PR cells were checked using a cell viability assay to confirm that they had at least 5-fold resistance to palbociclib compared to parental MCF-7 cells, as measured by an increase in the cell viability IC50 values. Assessment of cell viability following treatment with palbociclib or test compounds was performed according to the method described above for MCF-7 cells.

The next test deals with T6, FMS kinase (Homo sapiens, UniProt P07333).
T6 construct: purchased Invitrogen (Life Technologies)
As to the kind of experiment: LanthaScreen Eu Kinase Binding Assay (ATP, fluorescent-PolyGT substrate). Format: biochemical. The method in brief:
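Kinase (1.25 nM) preincubated 10 min with 3-fold compound dilutions, then ATP 10 μM and fluorescent PolyGT substrate 200 nM added for 1 h in the dark at room temperature. Stopped with Tb-antibody (4 nM) and EDTA 20 mM; TR-FRET at 340 nm excitation, 495/520 nm emission; IC50 from four-parameter fit.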

In test [4] the test system is Rb Ser780 phosphorylation in MCF-7 cells. Description: Determination of pRb levels (Ser780 phosphorylation, ELISA). Format: cell-based. The note with it: Homo sapiens, MCF7, 24H treatment, read-out: Inhibition of Rb phosphorylation IC50. The protocol:
Hypo-phosphorylation of the retinoblastoma protein (Rb) by cyclin D:Cdk4/6 complexes results in active Rb, which is a clinically relevant biomarker associated with CDK4 or CDK6 inhibition. As a confirmatory measure of functional activity of CDK4/6, the Ser780 phosphorylation state of Rb was assessed. MCF-7 cells were plated at 2.5×10^5 to 3.0×10^6 cells/well in 6-well cell-culture plates and incubated at 37° C. for 24H in MEM medium supplemented with 10% FBS. Cells were treated for 24H with a medium containing test compound at various concentrations (e.g., 0.01, 0.1, […]) or with DMSO (≤1%) in duplicate. After incubation period, the media was removed, and cells were rinsed once with ice-cold PBS and lysed with 0.2 mL of Cell Lysis Buffer containing 1 mM PMSF and Protease Inhibitor. Protein concentration was estimated following Bradford method. The lysis and the Rb measurements were performed following the manufacturer's ELISA kit protocols and buffers (Cell Signaling Technology, Cat. No.: 13016C). Rb inhibition of test compounds was calculated as percentage of vehicle control. In some cases, a nonlinear regression model with a sigmoidal dose response and variable slope within GraphPad Prism was used to calculate the IC50 value of Rb inhibition for individual test compounds.
(An ELISA detects its analyte on a solid surface through an enzyme-linked reagent.)

[5] abbreviates: MCF7, Table 4, Rb positive, treatment 144 Hr with medium change at 72 Hr, Cell Titer-Glo or resazurin.
Setting [6] is: MCF7, Table 5, parental, non-resistant cell line compared with MCF-7-PR.

pIC50: −log10 of the molar value. Where two headings read alike, the source gives them in different places.

T2 sequence (P11802 whole entry): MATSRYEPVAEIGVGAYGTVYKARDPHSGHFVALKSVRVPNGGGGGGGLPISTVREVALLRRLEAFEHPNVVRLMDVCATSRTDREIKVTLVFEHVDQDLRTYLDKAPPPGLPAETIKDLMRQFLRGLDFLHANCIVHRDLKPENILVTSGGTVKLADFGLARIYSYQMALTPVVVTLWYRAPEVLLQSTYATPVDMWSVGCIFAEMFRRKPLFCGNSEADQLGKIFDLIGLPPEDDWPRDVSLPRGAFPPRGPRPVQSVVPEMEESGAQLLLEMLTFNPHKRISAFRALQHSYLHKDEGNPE
T2 sequence (P24385 whole entry partner): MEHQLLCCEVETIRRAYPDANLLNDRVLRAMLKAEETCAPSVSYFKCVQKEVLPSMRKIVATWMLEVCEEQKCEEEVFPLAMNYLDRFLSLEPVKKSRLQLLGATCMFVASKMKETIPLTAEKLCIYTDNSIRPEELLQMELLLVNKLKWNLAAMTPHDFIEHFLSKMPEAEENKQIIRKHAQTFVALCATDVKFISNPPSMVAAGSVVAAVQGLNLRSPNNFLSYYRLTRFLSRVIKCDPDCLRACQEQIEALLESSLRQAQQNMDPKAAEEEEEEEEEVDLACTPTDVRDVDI
T1 sequence (Q00534 whole entry): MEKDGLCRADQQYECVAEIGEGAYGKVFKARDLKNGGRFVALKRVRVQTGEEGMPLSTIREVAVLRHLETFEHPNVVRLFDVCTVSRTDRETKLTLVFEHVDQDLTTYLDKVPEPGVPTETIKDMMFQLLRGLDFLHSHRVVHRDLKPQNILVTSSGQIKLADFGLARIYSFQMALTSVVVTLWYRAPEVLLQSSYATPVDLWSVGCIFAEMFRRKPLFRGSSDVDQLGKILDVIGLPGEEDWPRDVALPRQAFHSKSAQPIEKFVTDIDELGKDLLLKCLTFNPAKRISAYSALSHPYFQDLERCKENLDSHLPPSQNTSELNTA
T1 sequence (P24385 whole entry partner): as the sequence (P24385 whole entry partner) above
T3 sequence (P06493 whole entry): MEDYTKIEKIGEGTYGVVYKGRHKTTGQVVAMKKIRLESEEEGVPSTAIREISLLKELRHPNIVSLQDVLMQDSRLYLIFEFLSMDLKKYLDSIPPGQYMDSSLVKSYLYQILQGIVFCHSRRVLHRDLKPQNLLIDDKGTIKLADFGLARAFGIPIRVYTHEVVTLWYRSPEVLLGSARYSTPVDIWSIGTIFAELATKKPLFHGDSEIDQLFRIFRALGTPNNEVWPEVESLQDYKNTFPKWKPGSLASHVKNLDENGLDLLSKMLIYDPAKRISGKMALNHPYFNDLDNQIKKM
T3 sequence (P14635 whole entry partner): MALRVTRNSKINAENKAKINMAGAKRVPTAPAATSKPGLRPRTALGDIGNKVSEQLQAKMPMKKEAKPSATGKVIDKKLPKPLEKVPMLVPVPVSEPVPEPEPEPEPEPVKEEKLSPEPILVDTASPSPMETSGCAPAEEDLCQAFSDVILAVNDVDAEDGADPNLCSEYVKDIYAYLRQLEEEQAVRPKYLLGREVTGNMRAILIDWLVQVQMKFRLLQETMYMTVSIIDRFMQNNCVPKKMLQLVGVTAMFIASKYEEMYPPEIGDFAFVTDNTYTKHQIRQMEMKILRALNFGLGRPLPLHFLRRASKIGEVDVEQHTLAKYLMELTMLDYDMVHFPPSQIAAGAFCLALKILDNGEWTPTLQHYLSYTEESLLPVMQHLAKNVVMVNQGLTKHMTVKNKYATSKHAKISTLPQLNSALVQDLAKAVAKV
T6 sequence (P07333 20-972): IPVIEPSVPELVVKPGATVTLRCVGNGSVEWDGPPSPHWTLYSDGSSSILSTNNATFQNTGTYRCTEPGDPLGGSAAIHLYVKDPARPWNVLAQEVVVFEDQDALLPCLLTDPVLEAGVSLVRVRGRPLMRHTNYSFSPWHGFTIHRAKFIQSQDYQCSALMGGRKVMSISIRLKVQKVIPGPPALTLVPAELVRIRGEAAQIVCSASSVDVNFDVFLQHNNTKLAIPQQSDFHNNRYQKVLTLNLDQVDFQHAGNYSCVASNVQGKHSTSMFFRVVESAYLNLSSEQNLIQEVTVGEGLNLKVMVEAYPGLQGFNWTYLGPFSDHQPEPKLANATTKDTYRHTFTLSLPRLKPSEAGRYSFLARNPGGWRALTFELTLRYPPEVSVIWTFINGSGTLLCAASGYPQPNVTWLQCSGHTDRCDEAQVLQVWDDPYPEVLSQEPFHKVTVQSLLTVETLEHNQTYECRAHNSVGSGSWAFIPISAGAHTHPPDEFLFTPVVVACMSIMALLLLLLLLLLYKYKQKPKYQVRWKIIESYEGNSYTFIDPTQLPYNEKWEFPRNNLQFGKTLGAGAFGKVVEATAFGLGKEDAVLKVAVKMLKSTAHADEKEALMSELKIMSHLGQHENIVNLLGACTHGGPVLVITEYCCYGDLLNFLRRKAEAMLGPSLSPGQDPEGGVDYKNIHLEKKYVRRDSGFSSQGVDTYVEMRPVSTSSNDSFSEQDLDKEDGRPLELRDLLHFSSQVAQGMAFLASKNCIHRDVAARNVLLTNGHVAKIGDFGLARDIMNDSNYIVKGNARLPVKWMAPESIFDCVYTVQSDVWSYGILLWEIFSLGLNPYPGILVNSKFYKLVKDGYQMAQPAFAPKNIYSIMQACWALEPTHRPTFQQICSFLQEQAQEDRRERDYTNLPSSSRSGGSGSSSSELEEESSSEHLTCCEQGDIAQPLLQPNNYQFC
T4 sequence (P50750 whole entry): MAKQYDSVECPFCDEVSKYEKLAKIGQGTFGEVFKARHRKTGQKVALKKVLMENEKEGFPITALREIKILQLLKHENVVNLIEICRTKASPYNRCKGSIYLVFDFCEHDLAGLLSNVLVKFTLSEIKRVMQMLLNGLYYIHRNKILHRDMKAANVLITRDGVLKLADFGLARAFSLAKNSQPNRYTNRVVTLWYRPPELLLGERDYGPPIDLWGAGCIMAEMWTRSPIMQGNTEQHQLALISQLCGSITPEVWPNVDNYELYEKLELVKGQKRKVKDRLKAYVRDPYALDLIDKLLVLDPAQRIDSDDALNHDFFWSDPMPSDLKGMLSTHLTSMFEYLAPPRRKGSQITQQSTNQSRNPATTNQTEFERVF
T4 sequence (O75909 whole entry partner): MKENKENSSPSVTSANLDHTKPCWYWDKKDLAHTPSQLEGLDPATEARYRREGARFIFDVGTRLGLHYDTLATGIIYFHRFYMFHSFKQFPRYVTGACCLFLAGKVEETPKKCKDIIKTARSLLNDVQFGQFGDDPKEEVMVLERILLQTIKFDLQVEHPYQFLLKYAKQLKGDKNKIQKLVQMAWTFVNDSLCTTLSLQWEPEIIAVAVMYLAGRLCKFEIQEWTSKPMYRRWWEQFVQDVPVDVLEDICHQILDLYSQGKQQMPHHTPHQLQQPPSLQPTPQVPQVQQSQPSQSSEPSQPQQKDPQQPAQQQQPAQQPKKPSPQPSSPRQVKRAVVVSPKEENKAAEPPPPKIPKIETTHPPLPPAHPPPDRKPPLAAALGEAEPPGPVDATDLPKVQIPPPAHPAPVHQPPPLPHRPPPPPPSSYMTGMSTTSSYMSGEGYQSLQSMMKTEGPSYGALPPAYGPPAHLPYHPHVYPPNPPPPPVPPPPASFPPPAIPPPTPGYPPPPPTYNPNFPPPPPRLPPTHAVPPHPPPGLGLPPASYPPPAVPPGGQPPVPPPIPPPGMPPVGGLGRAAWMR

`N#Cc1cc2cnc(Nc3ccc4c(c3)CCN(CCN)C4)nc2n(C2CCCC2)c1=O` [Compound No. 66, 2-((2-(2-aminoethyl)-1,2,3,4-tetrahydroisoquinolin-6-yl)amino)-8-cyclopentyl-7-oxo-7,8-dihydropyrido[2,3-d]pyrimidine-6-carbonitrile]: the pIC50 at CDK6 is 8.22; on CDK4 it was 8.15; at CDK1 (cyclin B) (read-out: CDK1/B IC50), 5.76; at CDK9 (cyclin K), 7.08; against CDK2 (cyclin A) it was 6.37; in test [1], 6.01. Also, the pIC50 in [2] (setting [5]) is 6.25.
Turning to `CS(=O)(=O)N1CCC(Nc2ncc3cc(C#N)c(=O)n([C@H]4C[C@@H]5CC[C@H]4C5)c3n2)CC1` (racemic) [Compound No. 353, 8-((1S,2S,4R)-bicyclo[2.2.1]heptan-2-yl)-2-(1-(methylsulfonyl)piperidin-4-ylamino)-7-oxo-7,8-dihydropyrido[2,3-d]pyrimidine-6-carbonitrile], the pIC50 on CDK6 is 7.89; at CDK4, 7.82; on CDK1 (cyclin B), less than 5.59; in test [3], 6.11; against CDK2 (cyclin A), 8.00; in [1] it was 6.05. The pIC50 in test [2] (setting [5]) was 6.29; in test [2] (setting [6]), 6.46; at FMS kinase, 7.16.
As to `N#Cc1cc2cnc(Nc3cnn(C4CCNCC4)c3)nc2n(C2CCCC2)c1=O` [Compound No. 50, 8-cyclopentyl-7-oxo-2-((1-(piperidin-4-yl)-1H-pyrazol-4-yl)amino)-7,8-dihydropyrido [2,3-d] pyrimidine-6-carbonitrile], the pIC50 on CDK6 is 7.77; at CDK4, 7.64; in [4], 6.30; in test [3], 5.98; in test [1], 5.61; in test [2] (setting [5]), 6.40. The results for the pIC50 (in test [2] (setting [6]); on FMS kinase) were 6.18 and 9.00, respectively.
